The data set in a line: Solubility of rofecoxib. The format is physicochemical. Here is the method: In some embodiments, rofecoxib is a white to off-white to light yellow powder. […] The 50 mg tablets may also contain red ferric oxide. […] Added as preservatives are sodium methylparaben about 0.13% and sodium propylparaben about 0.02%.
https://www.ccdc.cam.ac.uk/structures/Search?Compound=Rofecoxib&DatabaseToSearch=Published). […] Rofecoxib has no ionizable moieties and cannot form salts; the solubility of rofecoxib cannot be increased by changing pH. Therefore, in some embodiments, rofecoxib is micronized in the final step of the manufacturing process in order to increase dissolution rate. Description of Manufacturing Process and Process Controls for Rofecoxib Tablets

By solubility is commonly meant the concentration that dissolves in the medium under given conditions.

Where two headings read alike, the source gives them in different places. Bounds are passed on as bounds.

As for `CS(=O)(=O)c1ccc(C2=C(c3ccccc3)C(=O)OC2)cc1` [TRM-201, 4-[4-(methylsulfonyl)phenyl]-3-phenyl-2(5H)-furanone], the solubility result is “sparingly soluble” (acetone); “very slightly soluble” (ethanol); “slightly soluble” (isopropyl acetate); “slightly soluble” (methanol); “practically insoluble” (octanol); “practically insoluble” (water, listed as Rofecoxib). In addition, the solubility entry is “insoluble” (water, listed as rofecoxib) and less than 100 µg/mL (water, read-out: solubility in water).

The values above are taken from patent US10945992B1, “Dosage forms of rofecoxib and related methods” (Tremeau Pharmaceuticals, Inc., priority 2019, dated 2021).
